# Read-outs that look alike come from different tables or passages of the source.
# What was measured:
# [1] = tested on: IKZF1, ASS1 and SALL4; assay: Recruitment assessment: recruitment of any tested substrate from among IKZF1, ASS1 and SALL4 (MAPPIT-like recruitment assays); type: cell-based; conditions: any tested substrate among IKZF1, ASS1, SALL4 at any tested concentration
# [2] = molecular target: T1, ASS1 (Homo sapiens, UniProt P00966+Q96SW2); assay: Recruitment Assay (MAPPIT-like): ASS1 recruitment, pSEL-CRBN+pMG1-ASS1; type: cell-based; conditions: recruitment of ASS1, protocol of Example 2; read-out: EC50_ASS1
# T1 construct: Full size proteins are fused for each of the target proteins tested; expressed in transfected cells; host or cells: HEK293T
# Procedure: (§1) In this experimental set-up, cells are transfected with a construct encoding a CRBN-fusion protein and another one encoding a substrate-fusion protein. Test compound activity is assessed with increasing concentrations of test compounds (dose-response studies) to monitor the ability to promote CRBN-ligand-induced protein interaction.
# (§2) Full size proteins are fused for each of the target proteins tested, except in the case of IKZF1 where isoform 7 is used, and BRD4, where isoform 3 is applied. For the study, the following construct combinations are used: IKZF1 recruitment: pSEL-CRBN+pMG1-IKZF1(isoform 7); ASS1 recruitment: pSEL-CRBN+pMG1-ASS1; SALL4 recruitment: pSEL-SALL4+pMG1-CRBN; DHFR recruitment: pCLG-DHFR+pMG1-CRBN; ESR1 recruitment: pSEL-CRBN+pMG1-ESR1; BRD4 recruitment: pSEL-CRBN+pMG1-BRD4(isoform 3). Cells are treated with erythropoietin (Epo; where pSEL-type receptor fusions constructs are used) or leptin (in the case pCLG-type receptor fusion constructs are applied) without or with the indicated dose of test compound at 24 hours after transfection. Luciferase activity is measured 24 hours after test compound treatment using the Luciferase Assay System kit (PROMEGA, Madison, Wis.) with an Ensight plate reader (PERKIN ELMER LIFE SCIENCES, Waltham, Mass.). Data points depict fold induction of the average luciferase activity of triplicate samples from Epo or leptin+test compound treated cells versus Epo or leptin only treated cells. Error bars represent standard deviations. Curves are fit using 4-parameter nonlinear regression in […] PRISM software.
# [3] = molecular target: T2, IKZF1 (Homo sapiens, UniProt Q13422+Q96SW2); assay: Recruitment Assay (MAPPIT-like): IKZF1 recruitment, pSEL-CRBN+pMG1-IKZF1(isoform 7); type: cell-based; conditions: recruitment of IKZF1, protocol of Example 2; read-out: EC50_IKZF1
# T2 construct: expressed in transfected cells; host or cells: HEK293T
# Procedure: as §1, §2
# [4] = molecular target: T3, CRBN (Homo sapiens, UniProt Q96SW2); assay: Competition Assay: MAPPIT-like, competition with trimethoprim-lenalidomide hybrid ligand for binding to CRBN in HEK293T cells; type: cell-based
# T3 construct: expressed in transfected cells; host or cells: HEK293T
# [5] = molecular target: T4, DHFR (UniProt P0ABQ4+Q96SW2); assay: Recruitment Assay (MAPPIT-like): DHFR recruitment to CRBN, pCLG-DHFR+pMG1-CRBN; type: cell-based, E. coli; conditions: for EC50: HEK293T cells, luciferase 24 hours after compound treatment, read-out: Recruitment EC50 (M), target protein DHFR
# T4 construct: Full size proteins are fused for each of the target proteins tested; expressed in transfected cells; host or cells: HEK293T
# Procedure: as §1, §2
# Error bars represent standard deviations and curves were fit using 4-parameter nonlinear regression in […] PRISM software.
# [6] = molecular target: T5, ESR1 (Homo sapiens, UniProt P03372+Q96SW2); assay: Recruitment Assay (MAPPIT-like): ESR1 recruitment, pSEL-CRBN+pMG1-ESR1; type: cell-based; conditions: HEK293T cells, luciferase 24 hours after compound treatment; read-out: Recruitment EC50 (M), target protein ESR1
# T5 construct: Full size proteins are fused for each of the target proteins tested; expressed in transfected cells; host or cells: HEK293T
# Procedure: as §1, with “In this Example 2, a similar MAPPIT-like assay is applied as described in Example 1 to determine test compound-induced binding of a particular substrate protein of interest to CRBN. In” for “In”
# Specifically, HEK293T cells are transfected with a plasmid encoding the MAPPIT receptor fusion wherein the protein of interest (CRBN or substrate protein) is genetically linked to a cytoplasmic domain of the leptin receptor, which itself is fused to the extracellular domain of the erythropoietin (Epo) receptor (pSEL-X, where X represents either CRBN or any of the tested substrate proteins of interest) or to the extracellular domain of the leptin receptor (pCLG-X, where X represents either CRBN or any of the tested substrate proteins of interest), a plasmid encoding the MAPPIT gp130 fusion (pMG1-Y, Y being either any of the tested substrate proteins or CRBN) and a STAT3-responsive luciferase-encoding reporter plasmid (pXP2d2-rPAPI-luciferase reporter plasmid), as described (Lievens, et al. “Array MAPPIT: high-throughput interactome analysis in mammalian cells.” Journal of Proteome Research 8.2 (2009): 877-886). Full size proteins are fused for each of the target proteins tested, except in the case of IKZF1 where isoform 7 is used, and BRD4, where isoform 3 is applied. […] Luciferase activity is measured 24 hours after test compound treatment using the Luciferase Assay System kit (PROMEGA, Madison, Wis.) with an Ensight plate reader (PERKIN ELMER LIFE SCIENCES, Waltham, Mass.). […]
# [7] = protocol and reagents of Example 1, read-out: IC50 Competition
# [8] = HEK293T cells, 300 nM trimethoprim-lenalidomide hybrid ligand, luciferase 24 hours after compound treatment, read-out: Competition IC50
structure (smiles),measurement,setting,value
"Cc1ccc(NC(=O)NCc2ccc3c(c2)CN(C2CCC(=O)NC2=O)C3=O)cc1Cl (stereo not shown) [CC-885, 1-(3-chloro-4-methyl-phenyl)-3-[[2-(2,6-dioxo-3-piperidyl)-1-oxo-isoindolin-5-yl]methyl]urea, reference compound]",Recruitment Assessment,[1],TRUE
same,EC50,[2],80.1 nM
same,EC50,[3],< 13.7 nM
same,IC50,[4]; [7],0.465 nM
COc1cc(Cc2cnc(N)cc2N)cc(OC)c1OCCCCC(=O)NCCOCCOCCOCCNC(=O)COc1ccc2nc(C(=O)Cc3ccc4c(c3)C(=O)N(C3CCC(=O)NC3=O)C4)ccc2c1 (stereo not shown) [Compound 5.10],EC50,[5],7.95e-08 M
COc1cc(Cc2cnc(N)nc2N)cc(OC)c1OCCCCC(=O)NCCOCCOCCOCCNC(=O)c1cccc(CNC(=O)CNc2ccc3c(c2)C(=O)N(C2CCC(=O)NC2=O)C3)c1 (stereo not shown) [Compound 5.12],EC50,[5],3.55e-08 M
COc1cc(Cc2cnc(N)nc2N)cc(OC)c1OCCCCC(=O)NCCOCCOCCOCCNC(=O)COc1ccc(Br)c2c1C(=O)N(C1CCC(=O)NC1=O)C2 (stereo not shown) [Compound 5.13],EC50,[5],4.69e-07 M
COc1cc(Cc2cnc(N)nc2N)cc(OC)c1OCCCCC(=O)NCCOCCOCCOCCNC(=O)c1ccc2ncnc(Nc3ccc4c(c3)C(=O)N(C3CCC(=O)NC3=O)C4)c2c1 (stereo not shown) [Compound 5.19],EC50,[5],4.2e-09 M
COc1cc(Cc2cnc(N)nc2N)cc(OC)c1OCCCCC(=O)NCCOCCOCCOCCNC(=O)c1ccc2c(Nc3ccc4c(c3)C(=O)N(C3CCC(=O)NC3=O)C4)ncnc2c1 (stereo not shown) [Compound 5.20],EC50,[5],1.01e-08 M
COc1cc(Cc2cnc(N)nc2N)cc(OC)c1OCCCCC(=O)NCCOCCOCCOCCNC(=O)Cn1cc(CN(C)C(=O)CNc2ccc3c(c2)C(=O)N(C2CCC(=O)NC2=O)C3)cn1 (stereo not shown) [Compound 5.23],EC50,[5],1.19e-07 M
COc1cc(Cc2cnc(N)nc2N)cc(OC)c1OCCCCC(=O)NCCOCCOCCOCCNC(=O)CN1CCN(C(=O)CNc2ccc3c(c2)C(=O)N(C2CCC(=O)NC2=O)C3)C(C)C1 (stereo not shown) [Compound 5.26],EC50,[5],4.5e-07 M
COc1cc(Cc2cnc(N)nc2N)cc(OC)c1OCCCCC(=O)NCCOCCOCCOCCNC(=O)c1ccc2c(c1)CN(C(=O)CNc1ccc3c(c1)C(=O)N(C1CCC(=O)NC1=O)C3)C2 (stereo not shown) [Compound 5.46],EC50,[5],1.44e-08 M
CC/C(=C(\c1ccccc1)c1ccc(OCCN(C)CC(=O)NCCOCCOCCOCCOCCNC(=O)COc2cccc3c2CN(C2CCC(=O)NC2=O)C3=O)cc1)c1ccccc1 (stereo not shown) [Compound 5.53],EC50,[6],7.35e-07 M
same,IC50,[4]; [8],1390 nM
CC/C(=C(\c1ccccc1)c1ccc(OCCN(C)CC(=O)NCCOCCOCCNC(=O)COc2cccc3c2CN(C2CCC(=O)NC2=O)C3=O)cc1)c1ccccc1 (stereo not shown) [Compound 5.54],EC50,[6],1.35e-07 M
same,IC50,[4]; [8],838 nM
CC/C(=C(\c1ccccc1)c1ccc(OCCN(C)CC(=O)NCCOCCOCCOCCNC(=O)COc2cccc3c2CN(C2CCC(=O)NC2=O)C3=O)cc1)c1ccccc1 (stereo not shown) [Compound 5.55],EC50,[6],4.42e-07 M
same,IC50,[4]; [8],1050 nM
"O=C1CCC(N2Cc3ccc(NC(=O)c4cnc5[nH]cnc5c4)cc3C2=O)C(=O)N1 (stereo not shown) [Compound C80394, N-[2-(2,6-dioxo-3-piperidyl)-3-oxo-isoindolin-5-yl]-3H-imidazo[4,5-b]pyridine-6-carboxamide]",Recruitment Assessment,[1],TRUE
same,IC50,[4]; [7],7990 nM
"COc1cc(Cc2cnc(N)nc2N)cc(OC)c1OCCCCC(=O)NCCOCCOCCOCCn1cc(CCC(=O)Nc2cccc3c2CN(C2CCC(=O)NC2=O)C3=O)nn1 (stereo not shown) [TMP-LEN, Trimethoprim-lenalidomide]","hybrid ligand-induced binding between CRBN and DHFR (MAPPIT signal, FIG. 3)","[5]; CRBN as gp130 fusion, DHFR linked to MAPPIT chimeric membrane receptor",dose-dependent signal can be observed
same,EC50,[5],1.86e-08 M

# Source: patent US20230099031A1, “BIFUNCTIONAL AGENTS FOR PROTEIN RECRUITMENT AND/OR DEGRADATION” (Orionis Biosciences, Inc., priority 2019, published 2023)
